The subject of one experiment is NPC1 KO mice. Nature of the experiment: Effect of GSK3 inhibitor on NPC1 KO mouse model. The experiment is classed as in vivo. The settings on record: LiCl 85 mg/kg or CHIR99021 20 mg/kg intraperitoneally daily from first week (b9: or same dose intragastrically). The procedure:
NPC1 KO mice are divided into three groups (a control group, a LiCl treatment group and a CHIR99021 treatment group), with five mice in each group. From the first week after birth, the mice in the LiCl treatment group and the CHIR99021 treatment group are intraperitoneally injected with LiCl (85 mg/kg) and CHIR99021 (20 mg/kg) per day respectively, the mice in the control group are intraperitoneally injected with normal saline, and the survival rate of the mice is continuously observed.
An NPC1 gene knock-out (KO) mouse preparation method: the NPC1 genes are knocked out by CRISPY_Cas9 to obtain NPC1−/−mice.
The NPC mouse model is prepared according to the method of Embodiment II, and LiCl (the dose of 85 mg/kg) or CRIR99021 (the dose of 20 mg/kg) is intraperitoneally injected every day from the first week.
The testing indexes are phenotypes of hematological and neurological systems, as well as symptoms and signs.

Experiment [1] concerns NPC1 KD or NPC1 KO hematopoietic and neural stem cells. Nature of the experiment: Effect of GSK3 inhibitor on NP-C cell model (proliferation, stem cell self-renewal and differentiation). The settings on record: for self-renewal and differentiation capacities of hematopoietic and neural stem cells: NPC1 KD or NPC1 KO cells, LiCl 10 MM, CHIR99021 3 uM. Format: cell-based, mouse. How it is done:
2) NPC1 gene expression knock-down (KD) human and mouse cells: lentivirus expressing human and mouse NPC1 shRNA is prepared, lentivirus infects human embryonic kidney 293T and Mouse Embryonic Fibroblast (MEF), positive infected cells are screened by puromycin, and qPCR and western blotting validate the effect of NPC1 gene expression knock-down, to obtain the NPC1 KD cell model.
According to the method of Embodiment I, NPC model cells are prepared, and hematopoietic stem cells and neural stem cells of the NPC1 KO mice are isolated.
Experimental procedures and measurement indexes are: treatment of NPC1 KD and NPC1 KO cells with GSK3 specific inhibitors, i.e., LiCl and CHIR99021, and observation of changes in cell proliferation and stern cell self-renewal and differentiation.

Where [2] appears, read: NPC1 KD hematopoietic stem cells, 10 mM LiCl.

For the molecule `Cc1c[nH]c(-c2cnc(NCCNc3ccc(C#N)cn3)nc2-c2ccc(Cl)cc2Cl)n1` [CHIR99021], in the experiment with NPC1 KO mice, the “hematopoietic function of the mice” value is “significantly improved” and the neurodegenerative change symptoms result is “significantly improved”. For the same molecule, the “self-renewal and differentiation capacities of hematopoietic and neural stem cells” value in experiment [1] is recorded as “significantly improve”.
Take `[Cl-].[Li+]` [LiCl]: in the experiment with NPC1 KO mice, the “hematopoietic function of the mice” value was “significantly improved” and the neurodegenerative change symptoms result was “significantly improved”. Also, in experiment [1] (setting [2]), the “increase of colony formation capacity” value is ≥ 30% and the “increase of proliferation capacity of hematopoietic stem cells” value is ≥ 50%. Besides, the “self-renewal and differentiation capacities of hematopoietic and neural stem cells” value in experiment [1] is given as “significantly improve”.

The values are drawn from US20200046763A1, “APPLICATION OF GSK3 INHIBITOR IN PREPARING A DRUG TO TREAT NIEMANN-PICK DISEASE TYPE C” (WUXI HANQIANG PHARMACEUTICAL TECHNOLOGY CO., LTD., priority 2016, published 2020).
